Data on two molecules can be found in US20140127316A1, “PROPOLIS AND CAFFEIC ACID PHENETHYL ESTER AND USES THEREOF” (NEW YORK UNIVERSITY, priority 2011, published 2014).

Data set [1] relates to estrogen receptor (ER). As to the kind of experiment: ER re-expression in MDA-231 cells by immunofluorescence and RT-PCR. The class given is cell-based. As to conditions: ER-negative MDA-231 cells, FIG. 4A.
A further data set relates to VEGF. As to conditions: MDA-231 cells; cited from earlier work.
The subject of another data set is p-Her2. Kind of data set: Immunoblotting of phosphorylated Her2 in SKBR3 cells. It counts as cell-based. As to conditions: FIG. 5. The source says:
The HDAC inhibition seen in many BC cell lines by CAPE and propolis results in the decrease of EGFR over-expression and induction of ER in MDA-231 cells and decrease in ER and PR expression in MCF-7 cells (FIG. 3, 4). CAPE and Propolis cause a decrease in p-Her2, the activated form of Her 2 in SKBR3 cells, likely through intracellular signaling mechanisms (FIG. 5). […] To establish that the epigenetic effects of CAPE can be recapitulated in the natural product, we determined the concentration of CAPE in propolis by HPLC. […] Furthermore, the enhanced effects of HDAC inhibition with propolis, compared to CAPE alone, make it a suitable candidate for a clinical trial in any area of oncology.
Background: In western blotting, separated proteins are transferred to a membrane and probed.

Data set [2] concerns histone deacetylases (HDAC). As to the kind of experiment: Western blotting of acetylated histone proteins in breast cancer cell lines. It counts as cell-based, human. As to conditions: MDA-231 and MCF-7 cells, FIG. 2. The source says: (§1) These cell lines serve as in vitro breast cancer models. […] This typically signifies the inhibition of histone deacetylases and is used as a readout of this process via Western blotting. […] Further, FIGS. 3 and 4 provide additional evidence of the epigenetic changes that occur with CAPE and propolis resulting from HDAC inhibition. FIG. 3 depicts the downregulation of the estrogen receptor (ER) and progesterone receptor (PR) in MCF-7 cells and the downregulation of the epidermal growth factor receptor (EGFR) in MDA-231 cells (FIG. 4B). The re-expression of a previously silenced gene, (ER), a key function of HDAC inhibition, is depicted by the upregulation of the estrogen receptor in the ER-negative MDA-231 cell line (FIG. 4A). Furthermore, we have shown the HDAC inhibitor activity is not just restricted to breast cancer, but also in lymphoma (FIG. 9).

Data set [3] relates to epidermal growth factor receptor (EGFR). Kind of data set: Immunoblotting of EGFR in MDA-231 cells. It counts as cell-based. As to conditions: FIG. 4B.
Data set [4] has as its system histone deacetylases (HDAC). As to the kind of experiment: Western blotting of acetylated histone H3 in lymphoma cell lines. As to conditions: RIVA, LY 1, SU-DHL6 lymphoma cell lines, FIG. 9. The class given is cell-based.
From the text: FIG. 9 illustrates by Western Blotting CAPE induced hyperacetylation of Histone Proteins (Ac H3) in the indicated lymphoma cell lines (RIVA, LY 1, SU-DHL6).
as §1

Data set [5] has as its system multidrug resistance 1 (mdr-1) gene. As to the kind of experiment: Gene expression microarray analysis. The class given is cell-based.
A further data set has as its system NF-κB. As to conditions: cited from earlier work.
In data set [6] the test system is progesterone receptor (PR). As to the kind of experiment: Immunoblotting of PR in MCF-7 cells. As to conditions: FIG. 3. The class given is cell-based.
The next data set deals with endothelial cells. As to conditions: cited from earlier work.
Data set [7] has as its system normal human mammary epithelial cells. As to the kind of experiment: Effect on normal mammary epithelial cells. The class given is cell-based.
Data set [8] concerns estrogen receptor (ER). Kind of data set: Immunoblotting of ER in MCF-7 cells. As to conditions: FIG. 3. The class given is cell-based.
The subject of the next data set is MDA-231 xenografts. Kind of data set: MDA-231 xenografts in nude mice. It counts as in vivo. On the procedure:
(§2) Nude mice bearing MDA-231 xenografts were fed CAPE-containing diets and/or treated topically with CAPE, and tumors measured twice/week. bCSC (breast CSC) were isolated from MDA-231 cells and xenografts, and propagated as mammospheres. Cell growth was analyzed using MTT and cell cycle by flow cytometry. Apoptosis was determined by co-staining bCSC with Annexin V and propidium iodide.

Data set [9] relates to MDA-MB-231 (MDA-231) cells. Kind of data set: Cell growth of MDA-231 cells (MTT). The class given is cell-based, human. As for the experimental part: as §2
Data set [10] relates to bCSC isolated from MDA-231 cells. As to the kind of experiment: Breast cancer stem cell (bCSC) clonal growth and self-renewal, mammospheres and soft agar. The class given is cell-based, human. As for the experimental part: as §2

Regarding `O=C(/C=C/c1ccc(O)c(O)c1)OCCc1ccccc1` [CAPE, caffeic acid phenethyl ester], the “ER expression (re-expression of silenced gene)” value in the data set on estrogen receptor (ER) [1] is “upregulation”. Besides, in the data set on VEGF, the VEGF secretion entry is “decreases”. Further, the p-Her2 expression result in the data set with p-Her2 was “decrease”. For the same molecule, the “HDAC inhibition (accumulation of acetylated histone proteins)” value in data set [2] was “HDAC inhibitors”. In [3], the EGFR expression result is recorded as “downregulation”. In data set [4], the “Acetylation of histone proteins (Ac H3)” value was “hyperacetylation”. Moreover, in [5], the mdr-1 gene expression result is reported as “down-regulates”. In addition, the NF-κB inhibition entry in the data set with NF-κB was “inhibits”. In [6], the PR expression result was “downregulation”. For the same molecule, the Tubule formation entry in the data set with endothelial cells is reported as “inhibits”. For the same molecule, in [7], the “Effect on normal cells” value is “innocuous”. Moreover, in the data set on estrogen receptor (ER) [8], the ER expression result is given as “downregulation”. Further, the “Growth of MDA-231 xenografts” value in the data set with MDA-231 xenografts (dietary CAPE) is recorded as “significantly inhibited”. Moreover, the Tumor volume entry in the data set with MDA-231 xenografts (subsequent topical treatment after dietary CAPE) was “further decreased”. Also, in data set [9], the “Growth of MDA-231 cells” value is “inhibits growth”. Besides, the bCSC clonal growth result in data set [10] is “decreased”. The “bCSC and progenitor self-renewal (growth in soft agar)” value in data set [10] (pretreatment with 20 μM) was “decreased growth in soft agar”.
Consider `Cc1[nH]c2ccccc2c1CCNCc1ccc(/C=C/C(=O)NO)cc1` [LBH 589, reference compound], for which the “ER expression (re-expression of silenced gene)” value in the data set with estrogen receptor (ER) [1] was “re-expression”.
